# Data reported in article PMC7906907, “Targeting STAT3 by a small molecule suppresses pancreatic cancer progression” (Oncogene, 2021).
# What was measured:
# Pancreatic cancer cells = test: Trans-well migration; format: cell-based
# Description: independent assays; *P < 0.05, **P < 0.01, ***P < 0.001, ****p < 0.0001 by one-way ANOVA followed by multiple comparisons. (C) Pancreatic cancer cells were seeded in the top chamber of Trans-well inserts and treated with N4 the following day. The lower chamber was fixed, stained, and photographed. Experiments were carried out in triplicate with identical results obtained. Data shown as mean ± SD; **P < 0.01, ****p < 0.0001 by Student’s t-tests. Scale bar, 100 μm.
# STAT3-SH2 = target: T1, STAT3-SH2 (Homo sapiens, UniProt P40763); test: Microscale thermophoresis (MST) assay, STAT3-SH2; format: binding
# T1 construct: made in house
# From the text: Fig. 3 N4 interacts with the STAT3-SH2 domain and interferes with the STAT3-EGFR and STAT3-NF-κB interactions. […] C–E The binding between N4 and STAT3 was examined in (C) SPR and (D) MST experiments. His-STAT3^127-722 protein was purified and used to examine the affinity between STAT3 and N4. (E) The binding between N4 and STAT3^SH2 was confirmed in MST assays. STAT3-SH2 protein was purified and labeled. N4 was serially diluted and mixed with equal volumes of labeled STAT3^SH2 protein. The MST signal was measured, and the data were analyzed by MO analysis software. F, G The FLAG-tag and HA-tag STAT3 expression plasmid was transfected into 293 T cells, followed by the addition of the indicated concentrations of N4. After 24 h, cells were lysed, and immunoprecipitation experiments were performed as described in Materials and Methods. H N4 represses STAT3 dimerization in pancreatic cancer cells. I After a 24 h treatment with 2 μM N4, pancreatic cancer cells were stimulated with IL-6 for 30 min. Cell lysates were immunoprecipitated with STAT3 overnight. […]
# The MST assay was previously described. Binding affinities of N4 with the purified His-STAT3-SH2 were measured using the Monolith NT.115 device (NanoTemper Technologies). […] The samples were then loaded into premium capillaries (NanoTemper Technologies) and measured using the Monolith NT.115 device. […]
# Pan02 cells = test: EMT markers by immunofluorescence and western blot; format: cell-based; conditions: IF and WB, 24 h
# Description: Fig. 8 N4 reverses EMT phenotype and shapes the microenvironment of PDAC. A IF staining was performed to detected the level of E-cadherin (red) and vimentin (green) after PAN02 treatment with the indicated concentrations of N4 for 24 h. DAPI (blue) was used to stain Nuclei. Scale bar, 20 μm. B Western blot assays were used to examine the expression of E-cadherin, N-cadherin and vimentin after PAN02 treatment with N4 for 24 h. C IHC of vimentin, F4/80 and α-SMA in tumor tissue from orthotopic models. Data represents the mean ± SD; *P < 0.05, **P < 0.01, ***P < 0.001, ****P < 0.0001, n.s. not significant by one-way ANOVA followed by multiple-comparison tests. D Quantification of vimentin, F4/80 and α-SMA in pancreatic tumors from PDAC. Scale bar, 50 μm.
# Western blotting was performed as previously described. Briefly, cells were treated with indicated compounds and then lysed by boiling. […]
# Immunofluorescence staining was performed as previously described. […] Images were recorded by confocal microscopy (Leica).
# T1 sequence (P40763 580-670 limits assumed): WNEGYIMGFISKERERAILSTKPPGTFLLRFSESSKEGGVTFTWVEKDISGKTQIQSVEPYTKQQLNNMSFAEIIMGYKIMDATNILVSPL
structure (smiles),measurement,setting,value
COc1cc2c(cc1C(=O)Nc1cccc3cccnc13)CCC1C(C)(C)C(=O)C(C#N)=C[C@]21C (stereo partly drawn) [N4],pancreatic cancer migration,Pancreatic cancer cells,efficiently blocked
same,Kd,STAT3-SH2,1010 nM
same,epithelial and mesenchymal markers,Pan02 cells,"upregulation of E-cadherin, and downregulation of N-cadherin and vimentin"
